Laboratory results as given in patent US10098852B2 (LAUNX BIOMEDICAL CO., LTD., priority 2014, dated 2018).
Where “and” joins values, the source holds several entries; their conditions need not be identical. Identical values can stand only once. Like-named read-outs stand apart in the source and are kept apart here.

Assays:
[1] = system: LoVo (Colorectal Adenocarcinoma); experiment: Cell viability analysis (WST-1), colorectal cancer cell line LoVo; assay type: cell-based; settings: Homo sapiens
Experimental: (§1) The cell numbers were counted and reseed as 2×10^6 in cell culture plate/flask. Then, the culture medium was added to a volume of 10 ml, and the cells were cultured for 2-3 days. Then, the cells were suspended for loading into 96-well plates. The cell number was 3000/well and the volume of the culture medium was 100 μl each well.
(§2) Removing the original culture medium from 96-well plate. Then add 100 μl of commercially drug at a concentration of 10 μM per well. After 72 hours, add the diluted WST-1 reagent to the well with 100 μl/well, and the diluted WST-1 reagent was acquired from the dilution of 9:1 medium and WST-1 stock reagent. Finally, the total volume of each well was 200 μl/well. Culture the 96-well plate at 37° C. for 30 to 90 minutes. Detecting and calculate the survival rate of each cancer cells with an ELISA reader at OD450 nm.

breast cancer cell = experiment: Summary of the effect on breast cancer cell (MCF7, MDA-MB-231); assay type: cell-based; settings: breast cancer cell (mean of MCF7 and MDA-MB-231 averages), 72 hours, read-out: Inhibitory effect
Experimental: as §2

[2] = system: LNCap (prostate cancer cell line); experiment: Cell viability analysis (WST-1), prostate cancer cell line LNCap; assay type: cell-based; settings: Homo sapiens
Experimental: as §1, §2

[3] = system: NIH-OVCAR-3 (ovarian cancer cell line); experiment: Cell viability analysis (WST-1), ovarian cancer cell line NIH-OVCAR-3; assay type: cell-based; settings: Homo sapiens
Experimental: as §1, §2

[4] = system: TOV-21G (ovarian cancer cell line); experiment: Cell viability analysis (WST-1), ovarian cancer cell line TOV-21G; assay type: cell-based; settings: Homo sapiens, TOV21G
Experimental: as §1, §2

[5] = system: gastric cancer cells (AGS) subcutaneous tumor; experiment: Animal model test of gastric cancer: tumor size; assay type: in vivo, mice (BALB/cAnN.Cg-Foxn1nu/CrlNarl); settings: for Tumor volume growth, average / tumor volume, average: group average; for Tumor volume growth / tumor longest length / tumor volume / tumor width: individual mice A, B, C
Experimental: In this invention, the female mice were (BALB/cAnN.Cg-Foxn1^nu/CrlNarl) purchased from National Laboratory Animal Center (Taiwan)). The weight of the mice were 21±1 g. These mice were subcutaneously injected with gastric cancer cells (AGS) and then put these mice into different cages at random. The drug test experiment was divided into three groups, include “control group”, “low dose group (100 mg/kg/day)”, and “high dose group (200 mg/kg/day)”. These mice were then injected test drug intraperitoneally once daily […]. The tumor sizes and body weight were measured twice a week. The tumor sizes were measured and calculated by formula: (L×W^2)/2. L represents the tumor longest length. W represents the tumor shortest diameter.

prostate cancer cell = experiment: Summary of the effect on prostate cancer cell (PC-3, LNCap); assay type: cell-based; settings: Homo sapiens, prostate cancer cell (mean of PC-3 and LNCap averages), 72 hours, read-out: Inhibitory effect
Experimental: as §2

colorectal cancer cell = experiment: Summary of the effect on colorectal cancer cell (HCT116-wt, LoVo); assay type: cell-based; settings: Homo sapiens, colorectal cancer cell (mean of HCT116-wt and LoVo averages), 72 hours, read-out: Inhibitory effect
Experimental: as §2

[6] = system: AGS (Gastric Adenocarcinoma); experiment: Cell viability analysis (WST-1), gastric cancer cell line AGS; assay type: cell-based
Experimental: as §1, §2

[7] = 72 h, average of 4 tests, read-out: inhibition effect (survival rate of cells), average
[8] = high dose (200 mg/kg/day) i.p. once daily, Fifth measurement
[9] = high dose (200 mg/kg/day) i.p. once daily, First measurement
[10] = high dose (200 mg/kg/day) i.p. once daily, First measurement, 200 mg/kg/day
[11] = high dose (200 mg/kg/day) i.p. once daily, Fourth measurement
[12] = high dose (200 mg/kg/day) i.p. once daily, Second measurement
[13] = high dose (200 mg/kg/day) i.p. once daily, Second measurement, 200 mg/kg/day
[14] = high dose (200 mg/kg/day) i.p. once daily, Third measurement
[15] = high dose (200 mg/kg/day) i.p. once daily, Third measurement, 200 mg/kg/day
[16] = low dose (100 mg/kg/day) i.p. once daily, Fifth measurement
[17] = low dose (100 mg/kg/day) i.p. once daily, Fifth measurement, 100 mg/kg/day
[18] = low dose (100 mg/kg/day) i.p. once daily, First measurement
[19] = low dose (100 mg/kg/day) i.p. once daily, First measurement, 100 mg/kg/day
[20] = low dose (100 mg/kg/day) i.p. once daily, Fourth measurement
[21] = low dose (100 mg/kg/day) i.p. once daily, Fourth measurement, 100 mg/kg/day
[22] = low dose (100 mg/kg/day) i.p. once daily, Second measurement
[23] = low dose (100 mg/kg/day) i.p. once daily, Second measurement, 100 mg/kg/day
[24] = low dose (100 mg/kg/day) i.p. once daily, Third measurement
[25] = low dose (100 mg/kg/day) i.p. once daily, Third measurement, 100 mg/kg/day

In the case of `Oc1ccc(OCc2ccccc2)cc1` [Monobenzone], the viability at 10 µM [1, 7] is reported as 83%, the viability at 10 µM ([1]; 72 hours, test 0616-10 min, read-out: inhibition effect (survival rate of cells)) is reported as 82.3% and the viability at 10 µM ([1]; 72 hours, test 0619-10 min, read-out: inhibition effect (survival rate of cells)) is reported as 73.9%. The viability at 10 µM ([1]; 72 hours, test 0621-10 min, read-out: inhibition effect (survival rate of cells)) was 94.7%, the viability at 10 µM ([1]; 72 hours, test 0623-10 min, read-out: inhibition effect (survival rate of cells)) was 81.3% and the viability at 10 µM (breast cancer cell) was 87.9%. It also gave a viability at 10 µM [2, 7] of 67.9%, a viability at 10 µM ([2]; 72 hours, test LNCap-1-10 min, read-out: inhibition effect (survival rate of cells)) of 65.5% and a viability at 10 µM ([2]; 72 hours, test LNCap-2-20 min, read-out: inhibition effect (survival rate of cells)) of 52.7%. The viability at 10 µM ([2]; 72 hours, test LNCap-3-20 min, read-out: inhibition effect (survival rate of cells)) was 81.6%, the viability at 10 µM ([2]; 72 hours, test LNCap-4-20 min, read-out: inhibition effect (survival rate of cells)) was 71.6% and the viability at 10 µM ([3]; OVCAR-3, 72 h, NIH-OVCAR-3, 10 μM, average of 4 tests, read-out: inhibition effect (survival rate of cells), average) was 91.5%. For the same compound, the viability at 10 µM ([3]; OVCAR-3, NIH-OVCAR-3, 10 μM, 72 hours, test 7-3-30 min, read-out: inhibition effect (survival rate of cells)) was 88.3%, the viability at 10 µM ([3]; OVCAR-3, NIH-OVCAR-3, 10 μM, 72 hours, test 7-4-30 min, read-out: inhibition effect (survival rate of cells)) was 96.6% and the viability at 10 µM ([3]; OVCAR-3, NIH-OVCAR-3, 10 μM, 72 hours, test 7-7-30 min, read-out: inhibition effect (survival rate of cells)) was 88.3%. It also gave a viability at 10 µM ([3]; OVCAR-3, NIH-OVCAR-3, 10 μM, 72 hours, test −4-30 min, read-out: inhibition effect (survival rate of cells)) of 92.7%, a viability at 10 µM [4, 7] of 78.4% and a viability at 10 µM ([4]; 72 hours, test 7-3-30 min, read-out: inhibition effect (survival rate of cells)) of 93.9%. It also gave a viability at 10 µM ([4]; 72 hours, test 7-4-30 min, read-out: inhibition effect (survival rate of cells)) of 78.4%, a viability at 10 µM ([4]; 72 hours, test 7-7-30 min, read-out: inhibition effect (survival rate of cells)) of 69.6% and a viability at 10 µM ([4]; 72 hours, test −4-30 min, read-out: inhibition effect (survival rate of cells)) of 71.6%. The “inhibition effect on tumor cells (in words)” value ([5]; both low dose (100 mg/kg/day) and high dose (200 mg/kg/day), FIG. 2) was “significant inhibition effect on tumor cells”, the “Tumor volume growth, average” value [5, 8] was 0 mm3 and the “tumor volume, average” value [5, 8] was 0 mm3. The Tumor volume growth [5, 8] was 0 mm3, the tumor longest length [5, 8] was 0 mm and the tumor volume [5, 8] was 0 mm3. The tumor width [5, 8] was 0 mm, the “Tumor volume growth, average” value [5, 9] was 25.67 mm3 and the “tumor volume, average” value [5, 9] was 25.67 mm3. The Tumor volume growth [5, 10] was 18 mm3 and 27 mm3 and 32 mm3, the tumor longest length [5, 10] was 4 mm (2×) and 6 mm and the tumor volume [5, 10] was 18 mm3 and 27 mm3 and 32 mm3. For the same compound, the tumor width [5, 10] was 3 mm (2×) and 4 mm, the “Tumor volume growth, average” value [5, 11] was −50 mm3 and the “tumor volume, average” value [5, 11] was 0 mm3. It also gave a tumor longest length [5, 11] of 0 mm, a tumor volume [5, 11] of 0 mm3 and a tumor width [5, 11] of 0 mm. The Tumor volume growth ([5]; high dose (200 mg/kg/day) i.p. once daily, Fourth measurement, 200 mg/kg/day) was −87.5 mm3 and −62.5 mm3 and 0 mm3, the “Tumor volume growth, average” value [5, 12] was 57.67 mm3 and the “tumor volume, average” value [5, 12] was 83.33 mm3. The tumor width [5, 12] was 5 mm, the Tumor volume growth [5, 13] was 69.5 mm3 and 48 mm3 and 55.5 mm3 and the tumor longest length [5, 13] was 7 mm (2×) and 6 mm. For the same compound, the tumor volume [5, 13] was 87.5 mm3 (2×) and 75 mm3, the “Tumor volume growth, average” value [5, 14] was −33.3333 mm3 and the “tumor volume, average” value [5, 14] was 50 mm3. The Tumor volume growth [5, 15] was 0 mm3 and −12.5 mm3 and −87.5 mm3, the tumor longest length [5, 15] was 7 mm and 5 mm and 0 mm and the tumor volume [5, 15] was 87.5 mm3 and 62.5 mm3 and 0 mm3. For the same compound, the tumor width [5, 15] was 5 mm (2×) and 0 mm, the “effect on tumor volume growth (in words)” value ([5]; high dose (200 mg/kg/day), FIG. 3) was “effectively slow down the tumor volume growth, and can also reduce the tumor volume” and the “Tumor volume growth, average” value [5, 16] was 2.667 mm3. For the same compound, the “tumor volume, average” value [5, 16] was 22 mm3, the Tumor volume growth [5, 17] was 0 mm3 (2×) and 8 mm3 and the tumor longest length [5, 17] was 4 mm and 6 mm and 0 mm. For the same compound, the tumor volume [5, 17] was 18 mm3 and 48 mm3 and 0 mm3, the tumor width [5, 17] was 3 mm and 4 mm and 0 mm and the “Tumor volume growth, average” value [5, 18] was 176.3333 mm3. The “tumor volume, average” value [5, 18] was 176.3333 mm3, the Tumor volume growth [5, 19] was 256 mm3 and 147 mm3 and 126 mm3 and the tumor longest length [5, 19] was 8 mm and 6 mm and 7 mm. For the same compound, the tumor volume [5, 19] was 256 mm3 and 147 mm3 and 126 mm3, the tumor width [5, 19] was 8 mm and 7 mm and 6 mm and the “Tumor volume growth, average” value [5, 20] was −88 mm3. The “tumor volume, average” value [5, 20] was 19.33 mm3, the Tumor volume growth [5, 21] was −108 mm3 and −68 mm3 and −88 mm3 and the tumor longest length [5, 21] was 4 mm and 5 mm and 0 mm. The tumor volume [5, 21] was 18 mm3 and 40 mm3 and 0 mm3, the tumor width [5, 21] was 3 mm and 4 mm and 0 mm and the “Tumor volume growth, average” value [5, 22] was −77.5 mm3. For the same compound, the “tumor volume, average” value [5, 22] was 98.83 mm3, the Tumor volume growth [5, 23] was −130 mm3 and −39 mm3 and −63.5 mm3 and the tumor longest length [5, 23] was 7 mm and 6 mm and 5 mm. The tumor volume [5, 23] was 126 mm3 and 108 mm3 and 62.5 mm3, the tumor width [5, 23] was 6 mm (2×) and 5 mm and the “Tumor volume growth, average” value [5, 24] was 0 mm3. For the same compound, the “tumor volume, average” value [5, 24] was 98.83 mm3, the Tumor volume growth [5, 24] was 0 mm3 and the tumor longest length [5, 25] was 7 mm and 6 mm and 5 mm. The tumor volume [5, 25] was 126 mm3 and 108 mm3 and 62.5 mm3, the tumor width [5, 25] was 6 mm (2×) and 5 mm and the viability at 10 µM (prostate cancer cell) was 65.2%. For the same compound, the viability at 10 µM (colorectal cancer cell) was 89%, the viability at 10 µM [6, 7] was 68.4% and the viability at 10 µM ([6]; 72 hours, test 0510-10 min, read-out: inhibition effect (survival rate of cells)) was 85.2%. The viability at 10 µM ([6]; 72 hours, test 0512-10 min, read-out: inhibition effect (survival rate of cells)) was 51.3%, the viability at 10 µM ([6]; 72 hours, test 0515-10 min, read-out: inhibition effect (survival rate of cells)) was 62.2% and the viability at 10 µM ([6]; 72 hours, test 0517-10 min, read-out: inhibition effect (survival rate of cells)) was 74.9%.
